“Also recorded” adds a separate entry of the source.
Test system: hydrogen peroxide in urine
Assay: Amount of hydrogen peroxide in rat urine after forced p.o. administration (FOX assay)
Format: in vivo, SD rats
Experimental: (c) The coffees obtained above in (a) and (b) were each forcibly administered p.o. (10 mL/kg) to six-week-old male SD rats (n=4). Three hours after the administration, urine was collected and the amount of hydrogen peroxide in their urine was measured. The amount of hydrogen peroxide in urine was measured by FOX (ferrous ion oxidation-xylenol orange) assay. (b) To 7-week-old male SD rats (n=4), 2.4 g/kg of instant coffee (Nescafe decaffeinated) (1.6 mg/kg in terms of hydroxyhydroquinone) and 1.6 mg/kg of hydroxyhydroquinone were forcibly administered p.o, respectively. Prior to administration and three hours and six hours after administration, urine was collected from them and the amount of hydrogen peroxide in urine was measured as in Example 2. To seven-week-old male SD rats (n=3), hydroxyhydroquinone (0.1, 0.3, 1 and 3 mg/kg, respectively) was forcibly administered p.o. Prior to administration and three and six hours after administration, urine was collected from them and the amount of hydrogen peroxide in the urine was determined as in Example 2. (c) The coffees obtained above in (a) and (b) (each, 10 mL/kg) were forcibly administered p.o. to seven-week-old male SD rats (n=8). Prior to administration and three and six hours after the administration, urine was collected from them and the amount of hydrogen peroxide in the urine was measured as in Example 2.

Oc1ccc(O)c(O)c1 [hydroxyhydroquinone]
amount of hydrogen peroxide in urine (Example 3, FIG. 3, 7-week-old male SD rats, p.o., 2.4 g/kg instant coffee or 1.6 mg/kg hydroxyhydroquinone, three hours after administration): significant increase
amount of hydrogen peroxide in the body (urine) (Example 4, FIG. 4, seven-week-old male SD rats, hydroxyhydroquinone 0.1, 0.3, 1 and 3 mg/kg p.o., urine three and six hours after administration): increases the generation amount of hydrogen peroxide in the body; also recorded: increases dose-dependently
dose from which the amount of hydrogen peroxide in the body increases (Example 4, FIG. 4, seven-week-old male SD rats, p.o.): ≥ 0.3 mg/kg

— patent US8182854B2, “Coffee drink composition” (Kao Corporation, priority 2004, dated 2012)
